Results on 21 compounds are retold here after ChEMBL document CHEMBL3046397, “Synthesis and Insecticidal Activity of 4-1, 2, 4-Thiadiazolin-3-ones” (J Pestic Sci, 1994).

Common to all, as to assay type: functional
Assay [1] concerns Spodoptera litura. The experiment in a line: Ovicidal activity against […] Spodoptera litura in paraffin paper assessed as egg mortality at 125 ppm at 25 degC, 65% RH measured after 7 days by egg dipping method. The conditions noted are these: 168 h.
The test system of assay [2] is Spodoptera litura. The experiment in a line: Insecticidal activity against third-instar larvae of Spodoptera litura in compound treated sweet potato leaves assessed as mortality at 2 to 4 ppm at 25 degC, 65% RH measured after 5 days by leaf dipping method.
Assay [3] concerns Mythimna separata. Briefly: Insecticidal activity against third-instar larvae Mythimna separata (Oriental armyworm) in compound treated maize leaves assessed as mortality at 0.25 to 1 ppm at 25 degC, 65% RH measured after 5 days by leaf dipping method.
In assay [4] the test system is Spodoptera litura. Briefly: Ovicidal activity against […] Spodoptera litura in paraffin paper assessed as egg mortality at 8 to 16 ppm at 25 degC, 65% RH measured after 7 days by egg dipping method.
Assay [5] concerns Spodoptera litura. Briefly: Insecticidal activity against third-instar larvae of Spodoptera litura in compound treated sweet potato leaves assessed as mortality at 0.25 to 1 ppm at 25 degC, 65% RH measured after 5 days by leaf dipping method.
Assay [6] has as its system Mythimna separata. Briefly: Insecticidal activity against third-instar larvae Mythimna separata (Oriental armyworm) in compound treated maize leaves assessed as mortality at 0.1 ppm at 25 degC, 65% RH measured after 5 days by leaf dipping method. The following applies: foliar, 120 h.
The test system of assay [7] is Spodoptera litura. Briefly: Insecticidal activity against third-instar larvae of Spodoptera litura in compound treated sweet potato leaves assessed as mortality at 0.1 ppm at 25 degC, 65% RH measured after 5 days by leaf dipping method. The conditions noted are these: foliar, 120 h.
The subject of assay [8] is Spodoptera litura. Briefly: Insecticidal activity against third-instar larvae of Spodoptera litura in compound treated sweet potato leaves assessed as mortality at 31 ppm at 25 degC, 65% RH measured after 5 days by leaf dipping method. The conditions noted are these: foliar, 120 h.
Assay [9] deals with Spodoptera litura. The experiment in a line: Insecticidal activity against third-instar larvae of Spodoptera litura in compound treated sweet potato leaves assessed as mortality at 8 to 31 ppm at 25 degC, 65% RH measured after 5 days by leaf dipping method.

Consider `O=c1nc(-c2c(F)cccc2F)sn1-c1cc(Cl)c(OC(F)(F)F)cc1Cl`, for which the mortality at 125 ppm in the assay on Spodoptera litura [1] is less than 90%. The mortality with Spodoptera litura [2] and with Mythimna separata [3] was greater than 90% throughout.
For `O=c1nc(-c2c(F)cccc2Cl)sn1-c1ccc(OC(F)(F)F)cc1`, the mortality in the assay on Spodoptera litura [4] and in the assay with Mythimna separata [3] was greater than 90% in each case.
Consider `O=c1nc(-c2c(F)cccc2F)on1-c1ccc(Cl)cc1`, for which the mortality at 125 ppm with Spodoptera litura [1] is less than 90%. The mortality in the assay on Mythimna separata [3] is greater than 90%.
Turning to `O=c1nc(-c2c(F)cccc2F)sn1-c1ccc(OC(F)(F)F)c(Cl)c1Cl`, the mortality at 125 ppm with Spodoptera litura [1] is less than 90%. In addition, the mortality in the assay with Spodoptera litura [5] and in the assay with Mythimna separata [3] was greater than 90% in each case.
Take `O=c1nc(-c2c(F)cccc2F)sn1-c1ccc(OC(F)(F)F)c(Cl)c1F`: in the assay with Spodoptera litura [1], the mortality at 125 ppm was less than 90%. The mortality in the assay on Spodoptera litura [5] was greater than 90%. Moreover, the mortality at 0.1 ppm in the assay on Mythimna separata [6] is greater than 90%.
Consider `O=c1nc(-c2c(F)cccc2F)sn1-c1cc(F)c(OC(F)(F)F)cc1Cl`, for which the mortality in the assay on Spodoptera litura [4] and in the assay with Mythimna separata [3] was greater than 90% each time. Further, in the assay with Spodoptera litura [7], the mortality at 0.1 ppm is greater than 90%.
For `O=c1nc(-c2c(F)cccc2F)sn1-c1cc(Cl)c(Oc2ncc(C(F)(F)F)cc2Cl)c(Cl)c1`, the mortality at 125 ppm in the assay on Spodoptera litura [1] is less than 90%. The mortality at 31 ppm in the assay on Spodoptera litura [8] is less than 90%. In the assay with Mythimna separata [3], the mortality is reported as greater than 90%.
On to `O=c1nc(-c2c(F)cccc2F)sn1-c1ccc(OC(F)(F)F)c(F)c1F`, for which the mortality with Spodoptera litura [4] is greater than 90%. Further, the mortality at 0.1 ppm in the assay with Spodoptera litura [7] and in the assay on Mythimna separata [6] was greater than 90% throughout.
`Cc1cc(-n2sc(-c3c(F)cccc3F)nc2=O)c(C)cc1OC(F)(F)F`: in the assay on Spodoptera litura [1], the mortality at 125 ppm was less than 90%. For the same compound, the mortality in the assay with Spodoptera litura [2] is recorded as greater than 90%. Also, the mortality at 0.1 ppm with Mythimna separata [6] is greater than 90%.
Turning to `O=c1nc(-c2c(F)cccc2F)sn1-c1ccc(OC(F)(F)F)cc1`, the mortality in the assay on Spodoptera litura [4] and with Spodoptera litura [9] was greater than 90% throughout. Besides, the mortality at 0.1 ppm with Mythimna separata [6] was greater than 90%.
On to `Cc1c(OC(F)(F)F)ccc(-n2sc(-c3c(F)cccc3F)nc2=O)c1C`, for which, in the assay with Spodoptera litura [1], the mortality at 125 ppm was less than 90%. Moreover, in the assay on Spodoptera litura [5], the mortality is greater than 90%. Besides, the mortality at 0.1 ppm in the assay on Mythimna separata [6] is greater than 90%.
For `O=c1nc(-c2c(F)cccc2F)on1-c1ccc(C(F)(F)F)cc1`, the mortality at 31 ppm in the assay with Spodoptera litura [8] is less than 90%. For the same compound, the mortality with Mythimna separata [3] is greater than 90%.
In the case of `O=c1nc(-c2c(F)cccc2F)on1-c1ccc(OC(F)(F)F)c(Cl)c1`, the mortality at 125 ppm in the assay on Spodoptera litura [1] is less than 90%. In addition, the mortality in the assay with Spodoptera litura [2] is greater than 90%. For the same compound, the mortality at 0.1 ppm with Mythimna separata [6] is greater than 90%.
On to `O=c1nc(-c2c(F)cccc2F)sn1-c1cc(F)c(OC(F)(F)F)cc1F`, for which the mortality with Spodoptera litura [4] and in the assay on Spodoptera litura [5] was greater than 90% throughout. The mortality at 0.1 ppm in the assay on Mythimna separata [6] is greater than 90%.
As to `O=c1nc(-c2c(F)cccc2F)sn1-c1ccc(C(F)(F)F)cc1`, in the assay with Spodoptera litura [4], the mortality is recorded as greater than 90%. Also, the mortality at 31 ppm in the assay on Spodoptera litura [8] is less than 90%. Also, in the assay on Mythimna separata [6], the mortality at 0.1 ppm was greater than 90%.
On to `O=c1nc(-c2ccccc2Cl)on1-c1ccc(OC(F)(F)F)cc1`, for which, in the assay with Spodoptera litura [1], the mortality at 125 ppm was less than 90%. Moreover, the mortality at 31 ppm in the assay on Spodoptera litura [8] is less than 90%. Further, in the assay with Mythimna separata [3], the mortality is greater than 90%.
Turning to `O=c1nc(-c2c(F)cccc2F)sn1-c1ccc(OC(F)(F)F)cc1F`, the mortality in the assay with Spodoptera litura [4] and in the assay on Spodoptera litura [5] was greater than 90% each time. Besides, the mortality at 0.1 ppm in the assay on Mythimna separata [6] was greater than 90%.
For `Cc1cc(-n2sc(-c3c(F)cccc3F)nc2=O)cc(C)c1OC(F)(F)F`, in the assay with Spodoptera litura [1], the mortality at 125 ppm is less than 90%. In addition, the mortality with Spodoptera litura [2] and with Mythimna separata [3] was greater than 90% throughout.
Take `Cc1c(OC(F)(F)F)ccc(-n2sc(-c3c(F)cccc3F)nc2=O)c1F`: the mortality in the assay with Spodoptera litura [4] and with Spodoptera litura [5] was greater than 90% each time. Moreover, the mortality at 0.1 ppm in the assay with Mythimna separata [6] was greater than 90%.
`O=c1nc(-c2c(F)cccc2F)sn1-c1ccc(OC(F)(F)F)c(F)c1`: the mortality with Spodoptera litura [4], in the assay on Spodoptera litura [2] and in the assay with Mythimna separata [3] was greater than 90% throughout.
Consider `O=c1nc(-c2c(F)cccc2F)sn1-c1ccc(Cl)cc1`, for which the mortality at 125 ppm with Spodoptera litura [1] was less than 90%. Moreover, the mortality at 31 ppm in the assay with Spodoptera litura [8] was less than 90%. Besides, the mortality in the assay with Mythimna separata [3] is greater than 90%.

What is called mortality is the share of the test organisms that died.
